Results reported in ChEMBL document CHEMBL3259532, “Elucidation of different inhibition mechanism of small chemicals on PtdInsP-binding domains using in silico docking experiments” (Bioorg Med Chem Lett, 2014).

How the values were obtained:
Epsin-1 (Homo sapiens) = biological target: T1, Epsin-1 (Homo sapiens) (UniProt Q9Y6I3); test: Inhibition of C-terminal 6xHis-tagged epsin-1 ENTH domain (unknown origin) expressed in Escherichia coli BL21(DE3) RIL assessed as inhibition of interaction with PtdIns(4,5)P2 at 100 uM after 15 mins by SPR analysis relative to control
T1 sequence (whole entry): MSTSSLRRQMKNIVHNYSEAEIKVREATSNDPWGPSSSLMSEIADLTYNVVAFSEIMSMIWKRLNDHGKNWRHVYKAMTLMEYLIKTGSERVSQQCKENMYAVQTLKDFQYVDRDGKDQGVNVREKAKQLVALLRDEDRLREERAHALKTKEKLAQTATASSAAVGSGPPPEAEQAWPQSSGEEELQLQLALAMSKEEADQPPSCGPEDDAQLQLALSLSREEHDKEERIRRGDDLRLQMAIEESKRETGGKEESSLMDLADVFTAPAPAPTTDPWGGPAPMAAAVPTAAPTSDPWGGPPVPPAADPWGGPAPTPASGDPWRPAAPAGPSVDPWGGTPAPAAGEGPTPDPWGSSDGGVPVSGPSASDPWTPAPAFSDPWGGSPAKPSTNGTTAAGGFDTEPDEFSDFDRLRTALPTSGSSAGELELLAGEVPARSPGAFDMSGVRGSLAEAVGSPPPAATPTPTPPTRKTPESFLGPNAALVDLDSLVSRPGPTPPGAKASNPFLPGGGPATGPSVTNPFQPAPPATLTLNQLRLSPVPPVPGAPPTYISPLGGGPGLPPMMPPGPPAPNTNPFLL

Cytohesin-3 = biological target: T2, Cytohesin-3 (Homo sapiens, UniProt O43739); test: Inhibition of recombinant C-terminal 6xHis-tagged Grp1 PH domain (unknown origin) expressed in Escherichia coli BL21(DE3) RIL assessed as inhibition of interaction with PtdIns(3,4,5)P3 after 15 mins by SPR analysis
T2 sequence (O43739 whole entry): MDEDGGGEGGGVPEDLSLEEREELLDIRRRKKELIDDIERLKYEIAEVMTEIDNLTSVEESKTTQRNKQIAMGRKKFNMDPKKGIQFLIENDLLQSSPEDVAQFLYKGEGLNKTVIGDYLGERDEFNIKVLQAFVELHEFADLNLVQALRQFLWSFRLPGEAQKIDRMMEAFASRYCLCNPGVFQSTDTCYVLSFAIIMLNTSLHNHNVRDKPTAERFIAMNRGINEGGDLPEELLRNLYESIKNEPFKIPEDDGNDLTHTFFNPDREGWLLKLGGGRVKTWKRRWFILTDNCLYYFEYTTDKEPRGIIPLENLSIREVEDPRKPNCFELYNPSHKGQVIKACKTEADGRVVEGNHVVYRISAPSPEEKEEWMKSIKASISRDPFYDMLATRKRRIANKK

[1] = biological target: T3, Cytohesin-3 (Homo sapiens) (UniProt O43739); test: Inhibition of C-terminal 6xHis-tagged Grp1 PH domain (unknown origin) expressed in Escherichia coli BL21(DE3) RIL assessed as inhibition of interaction with PtdIns(3,4,5)P3 at 500 uM after 15 mins by SPR analysis relative to control
T3 sequence (whole entry): T2 sequence (O43739 whole entry)

inhibition (Epsin-1 (Homo sapiens)) | inhibition [1] | Compound | IC50 (Cytohesin-3)
13% | 0% | O=C1[C@@H]2C[C@@H]3CC[C@@]2(O3)[C@@H](P(=O)(O)O)N1Cc1ccccc1 | –
57% | 36% | CCOP(=O)(O)c1cc(C(=O)O)[nH]n1 | –
8.3% | 48% | COP(=O)(O)C1=NNC(C)(C(=O)O)C1 (stereo unspecified) | –

Compound | inhibition (Epsin-1 (Homo sapiens)) | inhibition [1] | IC50 (Cytohesin-3)
O=C(O)c1cc(P(=O)(O)O)n[nH]1 | 61% | 77% | 38 µM
CC1(C(=O)O)CC([PH](=O)O)=NN1 (stereo unspecified) | 8% | 63% | –
